Marks after values point to notes of the source that are not given here.
Experiments:
[1] = tested on: D3R; parameters: method as in earlier work; details: ref 19 (Vanover et al.); cited from earlier work
[2] = tested on: D1R; parameters: method as in earlier work; details: ref 19 (Vanover et al.); cited from earlier work
[3] = target: T1, human 5-HT7b (Homo sapiens, UniProt P34969); assay: Radioligand displacement assay at 5-HT7 ([3H]-5-CT, HEK293 cells); format: binding; details: HEK293 cells stably expressing h5-HT7, read-out: Ki (n), 5-HT7
T1 construct: expressed in transfected cells; host or cells: HEK293
T1 sequence (P34969 1-432): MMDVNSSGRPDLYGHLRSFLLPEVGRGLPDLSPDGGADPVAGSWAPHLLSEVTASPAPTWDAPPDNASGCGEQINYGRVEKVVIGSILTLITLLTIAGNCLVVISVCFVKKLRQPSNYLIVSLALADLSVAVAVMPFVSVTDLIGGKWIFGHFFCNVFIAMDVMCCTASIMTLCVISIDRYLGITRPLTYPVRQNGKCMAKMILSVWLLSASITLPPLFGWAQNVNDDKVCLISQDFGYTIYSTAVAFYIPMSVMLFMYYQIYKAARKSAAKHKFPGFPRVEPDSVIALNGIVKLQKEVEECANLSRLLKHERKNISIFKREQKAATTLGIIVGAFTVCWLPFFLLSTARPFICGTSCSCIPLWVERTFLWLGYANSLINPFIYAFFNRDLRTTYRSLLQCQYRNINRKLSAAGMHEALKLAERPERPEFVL
Method: (§1) HEK293 cells with a stable expression of human 5-HT1A, 5-HT6, 5-HT7b, and D2L (prepared with the use of Lipofectamine 2000), or CHO-K1 cells with plasmids containing the sequence coding for the human serotonin 5-HT2A receptor (PerkinElmer), were maintained at 37 °C in a humidified atmosphere with 5% CO2 and grown in Dulbecco’s Modified Eagle Medium containing 10% dialyzed fetal bovine serum and 500 µg/mL G418 sulfate. For membrane preparation, cells were subcultured in 150 cm^2 flasks, grown to 90% confluence, washed twice with prewarmed to 37 °C phosphate buffered saline (PBS) and pelleted by centrifugation (200× g) in PBS containing 0.1 mM EDTA and 1 mM dithiothreitol. Prior to membrane preparation, the pellets were stored at −80 °C.
(§2) Cell pellets were thawed and homogenized in 10 volumes of assay buffer using an Ultra Turrax tissue homogenizer, and were then centrifuged twice at 35,000× g for 15 min at 4 °C, with incubations for 15 min at 37 °C in between. […] The process of equilibration was terminated by rapid filtration through Unifilter plates with a 96-well cell harvester and the radioactivity retained on the filters was quantified on a Microbeta plate reader (PerkinElmer, Waltham, MA, USA). […] The inhibition constants (Ki) were calculated from the Cheng-Prusoff equation [38]. Results are expressed as means of two separate experiments.

[4] = tested on: C57BL/6 mice; assay: Forced swim test (FST); format: in vivo; details: for immobility time in FST: acute i.p. pretreatment, ST-2300 or PIM 5, 10, 15 mg/kg, vs saline controls, adult male C57BL/6 mice, 6 min
Method: Inbred adult male C57BL/6 mice (aged 10–12 weeks and weighing 20–25 g) were obtained from the animal facility in the College of Medicine and Health Sciences, United Arab Emirates University. The animals were maintained in a separate air-conditioned room with controlled temperature and humidity (24 ± 2 °C and 55 ± 15%, respectively), with a 12 h light/dark cycle, and ad libitum to food and water. All the experiments were performed between 9.00 am and 3.00 pm. The procedures were approved by the Institutional Animal Ethics Committee of College of Medicine and Health Sciences/United Arab Emirates University (Approval No. ERA-2019-6010). To reduce the suffering of the animals, a minimum number of animals were used in this study, whereas the objectives were not compromised.
These experiments provide the first behavioral assessment of the ST-2300 in anxiety-like and depression-like behaviors in mice. All doses are expressed in terms of the free base of all test compounds. The drugs used in the current study were dissolved in saline and injected i.p. at a volume of 1 mL/kg. All experimental procedures were conducted in a blinded fashion in which the experimenter was uninformed about the specific treatment groups to which an animal group belonged. Saline, ST-2300 (5, 10, and 15 mg/kg), PIM (5, 10, and 15 mg/kg), FLX (10 mg/kg), RAM (10 mg/kg), and DZP (1 mg/kg) were injected i.p. 30–45 min before the beginning of the behavioral experiments.
The FST test was performed according to previously described protocols. Mice were individually placed into glass cylinders containing 15 cm of water at ∼25 °C. The mice were left in the cylinders for 6 min and immobility was observed and analyzed. The mice were then removed from the container and left to dry in a heated enclosure before being returned to their home cages. The mice were considered to be immobile when they ceased struggling and remained floating motionless in the water (without any vertical or horizontal movements), making only the movements necessary to keep their heads above the water level as described previously.

[5] = target: T2, human 5-HT1A (Homo sapiens, UniProt P08908); assay: Radioligand displacement assay at 5-HT1A ([3H]-8-OH-DPAT, HEK293 cells); format: binding; details: HEK293 cells stably expressing h5-HT1A, read-out: Ki (n), 5-HT1A
T2 construct: expressed in transfected cells; host or cells: HEK293
T2 sequence (P08908 1-422): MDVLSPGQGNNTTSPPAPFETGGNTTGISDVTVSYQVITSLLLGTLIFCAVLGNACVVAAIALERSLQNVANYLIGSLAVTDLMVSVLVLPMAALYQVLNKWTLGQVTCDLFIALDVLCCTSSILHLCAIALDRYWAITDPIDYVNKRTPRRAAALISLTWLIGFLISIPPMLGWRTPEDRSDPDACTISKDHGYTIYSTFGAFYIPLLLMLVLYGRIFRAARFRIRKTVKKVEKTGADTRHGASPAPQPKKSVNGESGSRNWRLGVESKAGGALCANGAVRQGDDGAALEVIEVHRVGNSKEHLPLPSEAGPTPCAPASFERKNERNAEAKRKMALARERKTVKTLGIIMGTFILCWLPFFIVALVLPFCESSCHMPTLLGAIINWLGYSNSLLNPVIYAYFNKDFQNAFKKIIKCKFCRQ
Method: as §1, §2

| SMILES | inhibition at 10 µM, D3R [1] | inhibition at 10 µM, D1R [2] | Ki [3] | immobility time in FST [4] | Ki [5] | immobility time in FST, co-administration of RAM ([4]; ST-2300 10 mg/kg i.p. co-administered with H3R agonist RAM 10 mg/kg i.p., vs ST-2300 alone) |
| --- | --- | --- | --- | --- | --- | --- |
| CC(C)COc1ccc(CNC(=O)N(Cc2ccc(F)cc2)C2CCN(C)CC2)cc1 [Pimavanserin, reference compound] | inhibition at 10 µM: 60% ^a | inhibition at 10 µM: <50% ^a | > 10 µM | significant and dose-dependent decrease of immobility time | > 10 µM |  |
| CN1CCC(N(Cc2ccc(F)cc2)C(=O)NCc2ccc(OCCCN3CCCCC3)cc2)CC1 [ST-2300, 1-(4-Fluorobenzyl)-1-(1-methylpiperidin-4-yl)-3-{4-[3-(piperidin-1-yl)propoxy]benzyl}urea] |  |  | > 10 µM | significant and dose-dependent decrease of immobility time | > 10 µM | significant increase of immobility time |

— paper PMC9138994 (Biomolecules, 2022)
